The values that follow come from patent publication US9204645B2, “Insecticidal aromatic amides” (BAYER INTELLECTUAL PROPERTY GMBH, priority 2011, dated 2015).

Holding throughout (assay type): in vivo
For experiment [1], the system named is larvae of the mustard beetle (Phaedon cochleariae). The experiment can be described thus: Phaedon cochleariae spray test (PHAECO). The conditions noted are these: for inhibition at 100 g/ha: Phaedon cochleariae, 168 h, PHAECO, 7 dat. The procedure: Phaedon Cochleariae—Spray Test (PHAECO)
(§1) • Solvents: 78.0 parts by weight of acetone • 1.5 parts by weight of dimethylformamide • Emulsifier: 0.5 part by weight of alkylaryl polyglycol ether
(§2) To produce a suitable preparation of active compound, 1 part by weight of active compound is mixed with the stated amounts of solvents and emulsifier, and the concentrate is diluted with emulsifier-containing water to the desired concentration.
After the desired period of time, the effect in % is determined 100% means that all of the beetle larvae have been killed; 0% means that none of the beetle larvae have been killed.

Experiment [2] relates to caterpillars of the armyworm (Spodoptera frugiperda). The experiment can be described thus: Spodoptera frugiperda spray test (SPODFR). The conditions noted are these: 168 h, 7 dat. The method, then:
Spodoptera frugiperda—Spray Test (SPODFR)
• Solvents: 78.0 parts by weight of acetone • 1.5 parts by weight of dimethylformamide • Emulsifier: 0.5 part by weight of alkylaryl polyglycol ether • To produce a suitable preparation of active compound, 1 part by weight of active compound is mixed with the stated amounts of solvents and emulsifier, and the concentrate is diluted with emulsifier-containing water to the desired concentration.
Leaf discs of maize (Zea mays) are sprayed with an active compound preparation of the desired concentration and, after drying, populated with caterpillars of the armyworm (Spodoptera frugiperda).
After the desired period of time, the effect in % is determined. 100% means that all of the caterpillars have been killed; 0% means that none of the caterpillars have been killed.

Experiment [3] relates to greenhouse red spider mite (Tetranychus urticae). Kind of experiment: Tetranychus urticae spray test, OP-resistant (TETRUR), bean plants. The conditions noted are these: 168 h, 7 dat. The procedure: Tetranychus urticae—Spray Test, OP-resistant (TETRUR) • Solvent: 7 parts by weight of dimethylformamide • Emulsifier: 2 parts by weight of alkylaryl polyglycol ether
To produce a suitable preparation of active compound, 1 part by weight of active compound is mixed with the stated amounts of solvent and emulsifier, and the concentrate is diluted with emulsifier-containing water to the desired concentration. If the addition of ammonium salts or/and penetrants is required, these are in each case added in a concentration of 1000 ppm to the solution of the preparation.
Bean plants (Phaseolus vulgaris) which are heavily infested by all stages of the greenhouse red spider mite (Tetranychus urticae) are sprayed with an active compound preparation of the desired concentration.
(§3) After the desired period of time, the effect in % is determined. 100% means that all of the spider mites have been killed; 0% means that none of the spider mites have been killed.

Experiment [4] shares this test system. The experiment can be described thus: Tetranychus urticae drench test, OP-resistant, systemic treatment (TETRUR sys.). The conditions noted are these: soil, 336 h, 14 dat. The method, then:
Tetranychus urticae—Drench Test, OP-resistant, systemic treatment (TETRUR sys.)
• Solvent: 7 parts by weight of dimethylformamide • Emulsifier: 2 parts by weight of alkylaryl polyglycol ether
To produce a suitable preparation of active compound, 1 part by weight of active compound is mixed with the stated amounts of solvent and emulsifier, and the concentrate is diluted with water to the desired concentration. If the addition of ammonium salts or/and penetrants is required, these are in each case added in a concentration of 1000 ppm to the solution of the preparation.
Bean plants (Phaseolus vulgaris) which are heavily infested by all stages of the greenhouse red spider mite (Tetranychus urticae) are watered with an active compound preparation of the desired concentration.
as §3

The test system of experiment [5] is green peach aphid (Myzus persicae). The experiment can be described thus: Myzus spray test (MYZUPE). The conditions noted are these: Myzus persicae, 144 h; MYZUPE, 500 g/ha, 6 dat. The procedure: Myzus—Spray Test (MYZUPE)
as §1, §2
Discs of Chinese cabbage leaves (Brassica pekinensis) infested by all stages of the green peach aphid (Myzus persicae) are sprayed with an active compound preparation of the desired concentration.
After the desired period of time, the effect in % is determined. 100% here means that all of the aphids have been killed; 0% means that no aphids have been killed.

Experiment [6] has as its system greenhouse red spider mite (Tetranychus urticae). The experiment can be described thus: Tetranychus urticae spray test, OP-resistant (TETRUR), bean leaf discs. The conditions noted are these: Tetranychus urticae, foliar, 144 h; TETRUR, 500 g/ha, 6 dat; read-out: % Activity. The method, then:
Tetranychus urticae—Spray Test; OP-resistant (TETRUR)
as §1, §2
Discs of bean leaves (Phaseolus vulgaris) which are infested by all stages of the greenhouse red spider mite (Tetranychus urticae) are sprayed with an active compound preparation of the desired concentration.
as §3

For the compound `CCC(=O)NCc1c(F)ccc(NC(=O)c2c(C(F)(F)F)c(C(F)(F)C(F)(F)F)nn2C)c1F` [Example 6], in experiment [1] (PHAECO spray test), the “efficacy compared to similar compounds of the prior art” value is reported as “superior efficacy”. Also, the inhibition at 100 g/ha in experiment [1] and in experiment [2] was 100% each time.

As to `CC(=O)NCc1cc(NC(=O)c2c(C(F)(F)F)c(C(F)(F)C(F)(F)F)nn2C)ccc1F` [Example 13], the inhibition at 20 ppm in experiment [3] was found to be 30%; in experiment [4], 90%.

Turning to `CCNC(=O)c1cc(NC(=O)c2c(C(F)(F)F)c(C(F)(F)C(F)(F)F)nn2C)ccc1Cl` [Example Ik-66, reference compound], the inhibition at 20 ppm in experiment [3] came to 0%; in experiment [4], 30%.

`CC(C)NC(=O)c1c(F)ccc(NC(=O)c2c(C(F)(F)F)c(C(F)(F)C(F)(F)F)nn2C)c1F` [Example Ik-74, reference compound]: the inhibition at 100 g/ha in experiment [1] turned out to be 33%; in experiment [2] it was 0%. Also, the inhibition at 500 g/ha in experiment [5] and in experiment [6] was 0% throughout.
